Reference: patent US20240246968A1, “SMALL MOLECULE INHIBITORS OF KRAS G12C MUTANT” (Merck Sharp & Dohme LLC, priority 2021, published 2024)

How the values were obtained:
[1] = biological target: Gppcp-bound recombinant K-Ras4B G12C mutant protein (amino acids 1-169, C51S/C80L/C118S) (Homo sapiens, UniProt P01116, C118S/C51S/C80L/G12C); experiment: KRASG12C binding assay (LC-MS, compound binding rate); settings: test compound final concentration 0.5 μM, 25° C., 1 hour
Method: As test compounds for the KRASG12C binding assay, the compounds obtained in the “Preparation of Compounds” section were used. Sample solutions each containing a test compound were prepared in the form of a 10 mM DMSO solution.
Gppcp-bound recombinant K-Ras4B G12C mutant protein (amino acids 1-169, C51S/C80L/C118S, SEQ ID NO:1) was diluted with a buffer (1×TBS, 0.1 mM TCEP, 0.25 mM MgCl2, 50 μM Gppcp) to prepare a 50 nM protein solution. K-Ras4B is the major splicing variant of K-Ras. Amino acid sequence of residues 1 to 150 including the compounds' binding region of K-Ras4B is exactly same as that of K-Ras4A, the other splicing variant (Oncotarget. 2016 Jul. 19; 7(29): 46717-46733). A sample solution containing 10 mM test compound was diluted ten-fold with DMSO to make a 1 mM sample solution, and then diluted twenty-fold with DMSO to make a 50 μM sample solution. 1 μL of a 50 μM sample solution was added to 100 μL of a 50 nM protein solution to adjust the final concentration of a test compound to be 0.5 μM in the mixture. The mixtures were stored in an incubator at 25° C. for 1 hour, and 10 μL of a 1×TBS solution containing 2% formic acid was added to stop the reaction, followed by LC-MS measurement. LC-MS measurement was performed using Xevo G2-S Q-Tof manufactured by Waters, and reverse-phase chromatography was performed with a desalting column. A mass spectrum of positive ions was obtained by electrospray. For a mass spectrum, a spectrum of polyvalent ions was collectively converted to a molecular weight by using OpenLynx software by the MaxEnt technique, and a compound binding rate was calculated from the ratio of the signal intensity of a peak that corresponds to the molecular weight of the protein to the signal intensity of a peak that corresponds to the molecular weight of the protein conjugated with the compound.
The binding assay of the test compounds was conducted at a final concentration of 0.5 μM. A binding rate of 80% or more is rated “A”, a binding rate of 60% or more and less than 80% is rated “B”, a binding rate of 40% or more and less than 60% is rated “C”, a binding rate of 20% or more and less than 40% is rated “D”, and a binding rate of less than 20% is rated “E”. N.D.=not determined. Binding rate % is the ratio of KRAS signal intensity at the molecular weight of one molecule adduct to the sum of all the KRAS signal intensity (unbound form and adducts) in mass spectrum. Thus, binding rate 100% means that only the one molecule adduct was observed without any unbound KRAS. The following tables show the results.

[2] = biological target: T1, interaction between recombinant K-Ras4B G12C mutant protein and cRAF RAS-binding domain (cRAF-RBD) (Homo sapiens, UniProt P01116, G12C); experiment: Inhibitory activity on interaction between KRAS G12C and cRAF (Alpha technology); format: biochemical; settings: GMPPNP-bound KRAS G12C incubated with compound at 25° C. for 1 hour, then cRAF-RBD; Alpha signal
T1 construct: made in house; host or cells: E. coli
Method: Interaction between recombinant K-Ras4B G12C mutant protein (amino acids 1-169, SEQ ID NO:2) and cRAF RAS-binding domain (cRAF-RBD, amino acids 50-132, Jena Biosciences GmbH) was measured using Alpha technology (PerkinElmer Inc.).
Recombinant KRAS G12C protein with an N-terminal His-tag was expressed in E. coli and purified by affinity chromatography. To prepare GTP-bound form and GDP-bound form of KRAS G12C protein. 50 μM KRAS G12C protein was incubated with 1 mM GMPPNP (Guanosine-5′-[(β,γ)-imido]triphosphate. Tetralithium salt)(Jena Bioscience GmbH) and 1 mM GDP, respectively, in a loading buffer (20 mM Tris-HCl (pH 7.5), 50 mM NaCl, 1 mM DTT and 2.5 mM EDTA) for 1 hour on ice. After the incubation, MgCl2 was added to a final concentration of 10 mM, followed by incubation at room temperature for 30 minutes. The mixture was allowed to pass through a NAP-5 column to remove free nucleotides and purified, and the resultant nucleotide-bound KRAS G12C protein was used for compound evaluation.
For the measurement of the inhibitory activity of compounds on interaction between KRAS G12C and cRAF-RBD, GMPPNP-bound KRAS G12C protein was incubated with various concentrations of compound in a reaction buffer (20 mM Tris-HCl (pH 7.5), 100 mM NaCl, 1 mM MgCl2, 1 mM TCEP. 0.1% Tween 20) at 25° C. for 1 hour. After the incubation, recombinant cRAF-RBD and Alpha detection reagents were added and incubated at room temperature for 1.5 hours for binding. Interaction of KRAS G12C and cRAF-RBD was monitored by measuring Alpha signal. Inhibition % was calculated using the signal from the reaction without test compound (DMSO control) as 0% inhibition and the signal from the reaction using GDP-bound KRAS G12C in place of GMPPNP-bound KRAS G12C as 100% inhibition. IC50 values were calculated from dose titration curve using curve fitting by XLfit software (IDBS). The following tables show the results.

[3] = system: MIA PaCa-2 cells; experiment: Growth inhibition activity on KRAS-G12C mutant cell line (MIA PaCa-2), CellTiter-Glo 3D; format: cell-based, human; settings: MIA PaCa-2, 3-day culture with compound
Method: MIA PaCa-2 cells (given by Sumitomo Dainippon Pharma Co., Ltd.), which are a KRAS-G12C mutant human pancreas cancer cell line, were suspended in a 10% fetal bovine serum-containing RPMI1640 medium (manufactured by Fujifilm Wako Pure Chemical Corporation.). The cell suspension was seeded into each well of a 384-well U bottom microplate and cultured in an incubator containing 5% CO2 gas at 37° C. for 1 day. The compounds obtained in the “Preparation of Compounds” section were used as test compounds and were dissolved in DMSO, respectively, and each test compound was diluted with DMSO to give a concentration 500 times the final concentration. The resultant solution of the test compound in DMSO was diluted with the medium used for suspending cells and added to each well of the cell-culture plate to give a DMSO final concentration of 0.2%, followed by culture in an incubator containing 5% CO2 gas at 37° C. for another 3 days. The cell count after 3-day culture in the presence of the test compound was measured using CellTiter-Glo 3D Reagent (manufactured by Promega Corporation). All wells were added with CellTiter-Glo 3D Reagent and mixed for 10 minutes. 30 minutes after mixing, luminescence was measured by a plate reader. The growth inhibition rate was calculated from the following equation, and the concentration of the test compound at which 50/o inhibition was achieved (IC50 (nM)) was determined. The following tables show the results.
[formula] • T: the emission intensity in a well into which a test compound was added. • C: the emission intensity in a well into which a test compound was not added.

IC50 [2] [nM]	IC50 [3] [nM]	Compound	binding rate [1]
800	940	CO[C@H]1CC[C@H](NC/C=C/C(=O)Nc2c(F)cc(C(=O)c3ccc4c(-c5c(C(F)(F)F)cc6c(ncn6C)c5Cl)cccn34)cc2F)CC1 (single isomer, unassigned) [Example 28-2, (E)-N-(4-(8-(4-chloro-1-methyl-6-(trifluoromethyl)-1H-benzo[d]imidazol-5-yl)indolizine-3-carbonyl)-2,6-difluorophenyl)-4-(((1r,4r)-4-methoxycyclohexyl)amino)but-2-enamide]	A (A binding rate of 80% or more is rated “A”)
94	130	CO[C@H]1CC[C@H](NC/C=C/C(=O)Nc2c(F)cc(C(=O)c3ccc4c(-c5c(C)cc6c(ncn6C)c5C)cccn34)cc2F)CC1 (single isomer, unassigned) [Example 34-1, (E)-N-(2,6-difluoro-4-(8-(1,4,6-trimethyl-1H-benzo[d]imidazol-5-yl)indolizine-3-carbonyl)phenyl)-4-(((1r,4r)-4-methoxycyclohexyl)amino)but-2-enamide]	A (A binding rate of 80% or more is rated “A”)
200	310	CO[C@H]1CC[C@H](NC/C=C/C(=O)Nc2c(F)cc(C(=O)c3ccc4c(-c5c(C)cc6c(ncn6C)c5C)cccn34)cc2F)CC1 (single isomer, unassigned) [Example 34-2, (E)-N-(2,6-difluoro-4-(8-(1,4,6-trimethyl-1H-benzo[d]imidazol-5-yl)indolizine-3-carbonyl)phenyl)-4-(((1r,4r)-4-methoxycyclohexyl)amino)but-2-enamide]	B (a binding rate of 60% or more and less than 80% is rated “B”)

More lines, now with the values behind:

Compound	IC50 [2] [nM]	IC50 [3] [nM]	binding rate [1]
Cc1cc2c(ncn2C)c(Cl)c1-c1cccn2c(C(=O)c3cc(F)c(NC(=O)/C=C/CNC4CCOCC4)c(F)c3)ccc12 (single isomer, unassigned) [Example 27-1, (E)-N-(4-(8-(4-chloro-1,6-dimethyl-1H-benzo[d]imidazol-5-yl)indolizine-3-carbonyl)-2,6-difluorophenyl)-4-((tetrahydro-2H-pyran-4-yl)amino)but-2-enamide]	25	120	A (A binding rate of 80% or more is rated “A”)
Cc1cc2c(ncn2C)c(Cl)c1-c1cccn2c(C(=O)c3cc(F)c(NC(=O)/C=C/CNC4CCOCC4)c(F)c3)ccc12 (single isomer, unassigned) [Example 27-2, (E)-N-(4-(8-(4-chloro-1,6-dimethyl-1H-benzo[d]imidazol-5-yl)indolizine-3-carbonyl)-2,6-difluorophenyl)-4-((tetrahydro-2H-pyran-4-yl)amino)but-2-enamide]	120	530	A (A binding rate of 80% or more is rated “A”)
CO[C@H]1CC[C@H](NC/C=C/C(=O)Nc2c(F)cc(C(=O)c3ccc4c(-c5c(C(F)(F)F)cc6c(ncn6C)c5Cl)cccn34)cc2F)CC1 (single isomer, unassigned) [Example 28-1, (E)-N-(4-(8-(4-chloro-1-methyl-6-(trifluoromethyl)-1H-benzo[d]imidazol-5-yl)indolizine-3-carbonyl)-2,6-difluorophenyl)-4-(((1r,4r)-4-methoxycyclohexyl)amino)but-2-enamide]	31	51	A (A binding rate of 80% or more is rated “A”)
COc1cc(N2CCCC2=O)cc(Cl)c1-c1cccn2c(C(=O)c3cc(F)c(NC(=O)/C=C/CN[C@H]4CC[C@H](OC)CC4)c(F)c3)ccc12 (single isomer, unassigned) [Example 30-1, (E)-N-(4-(8-(2-chloro-6-methoxy-4-(2-oxopyrrolidin-1-yl)phenyl)indolizine-3-carbonyl)-2,6-difluorophenyl)-4-(((1r,4r)-4-methoxycyclohexyl)amino)but-2-enamide]	130	360	A (A binding rate of 80% or more is rated “A”)
COc1cc(N2CCCC2=O)cc(Cl)c1-c1cccn2c(C(=O)c3cc(F)c(NC(=O)/C=C/CN[C@H]4CC[C@H](OC)CC4)c(F)c3)ccc12 (single isomer, unassigned) [Example 30-2, (E)-N-(4-(8-(2-chloro-6-methoxy-4-(2-oxopyrrolidin-1-yl)phenyl)indolizine-3-carbonyl)-2,6-difluorophenyl)-4-(((1r,4r)-4-methoxycyclohexyl)amino)but-2-enamide]	61	120	A (A binding rate of 80% or more is rated “A”)
CO[C@H]1CC[C@H](NC/C=C/C(=O)Nc2c(F)cc(C(=O)c3ccc4c(-c5c(C(F)(F)F)cc6c(nc(C)n6C)c5Cl)cccn34)cc2F)CC1 (single isomer, unassigned) [Example 32-1, (E)-N-(4-(8-(4-chloro-1,2-dimethyl-6-(trifluoromethyl)-1H-benzo[d]imidazol-5-yl)indolizine-3-carbonyl)-2,6-difluorophenyl)-4-(((1r,4r)-4-methoxycyclohexyl)amino)but-2-enamide]	21	14	A (A binding rate of 80% or more is rated “A”)
CO[C@H]1CC[C@H](NC/C=C/C(=O)Nc2c(F)cc(C(=O)c3ccc4c(-c5c(C(F)(F)F)cc6c(nc(C)n6C)c5Cl)cccn34)cc2F)CC1 (single isomer, unassigned) [Example 32-2, (E)-N-(4-(8-(4-chloro-1,2-dimethyl-6-(trifluoromethyl)-1H-benzo[d]imidazol-5-yl)indolizine-3-carbonyl)-2,6-difluorophenyl)-4-(((1r,4r)-4-methoxycyclohexyl)amino)but-2-enamide]	420	990	A (A binding rate of 80% or more is rated “A”)
